ChEMBL document CHEMBL1201862, “PubChem BioAssay data set” (2004)
The source made the active and inactive calls.

Tests used:
[1] = cells
[2] = tested on: HeLa; experiment: Cytotoxicity counterscreen assay for transcriptional activators of heat shock protein 70 (Hsp70). [Related pubchem assays: 1203, 1252 ]; format: functional; details: Homo sapiens;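 also: cells exposed to compound for 16 hours before readout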
[3] = fluconazole-exposed Candida albicans growth modulators – fluorescence, retest, confirmation (AID 2467); format: functional, cell-based
[4] = tested on: INS1; experiment: INS-1E survival protection against cytokine death – cell-based, luminescence, retest, dose response (AID 449756); format: functional; details: Rattus norvegicus;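 also: cell death triggered by IL-1 beta plus TNF-alpha plus IFN-gamma mixture; protective hits raise ATP signal compared with cytokine alone wells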
[5] = NIH-3T3 fibroblast cytotoxicity, dose response, cytotoxicity control, cell-based, fluorescence, Alamar Blue, secondary assay (AID 2327); format: functional;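 also: NIH-3T3 mouse fibroblasts cultured with fluconazole at 8 µg/mL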
[6] = target: Nonstructural protein 1 (Influenza A virus, UniProt Q194T2); format: functional, Influenza A virus (A/California/07/2009(H1N1))
Sequence of Nonstructural protein 1 (Q194T2 whole entry): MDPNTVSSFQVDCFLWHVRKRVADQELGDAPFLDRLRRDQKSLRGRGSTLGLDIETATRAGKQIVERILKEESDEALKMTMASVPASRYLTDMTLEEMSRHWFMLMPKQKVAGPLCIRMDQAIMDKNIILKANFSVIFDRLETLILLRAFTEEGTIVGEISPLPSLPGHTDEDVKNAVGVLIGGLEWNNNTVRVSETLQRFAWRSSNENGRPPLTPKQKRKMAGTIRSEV

[7] = mitochondrial function rescue without frataxin homolog – Friedreich's ataxia, plus single-dose screen, dose response (AID 1465); format: functional;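 also: yeast depleted of Yfh1p frataxin homolog grown on glycerol needing respiration; WST-1 tetrazolium dye reduction as measure of cellular dehydrogenase metabolic activity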
[8] = CCR5-tropic HIV-1 fusion blockers – cell-based, CCR5-tropic Env, dose response (AID 2279); format: functional
[9] = target: T1, Protein RecA (Mycobacterium tuberculosis, UniProt P9WHJ3); experiment: Fluorescence Cell-Free Homogeneous Dose Retest to Identify Inhibitors of RecA-Intein Splicing Activity. [Related pubchem assays (depositor defined):AID2097, AID2223, AID489010, AID492950]; format: functional
T1 sequence (P9WHJ3 whole entry): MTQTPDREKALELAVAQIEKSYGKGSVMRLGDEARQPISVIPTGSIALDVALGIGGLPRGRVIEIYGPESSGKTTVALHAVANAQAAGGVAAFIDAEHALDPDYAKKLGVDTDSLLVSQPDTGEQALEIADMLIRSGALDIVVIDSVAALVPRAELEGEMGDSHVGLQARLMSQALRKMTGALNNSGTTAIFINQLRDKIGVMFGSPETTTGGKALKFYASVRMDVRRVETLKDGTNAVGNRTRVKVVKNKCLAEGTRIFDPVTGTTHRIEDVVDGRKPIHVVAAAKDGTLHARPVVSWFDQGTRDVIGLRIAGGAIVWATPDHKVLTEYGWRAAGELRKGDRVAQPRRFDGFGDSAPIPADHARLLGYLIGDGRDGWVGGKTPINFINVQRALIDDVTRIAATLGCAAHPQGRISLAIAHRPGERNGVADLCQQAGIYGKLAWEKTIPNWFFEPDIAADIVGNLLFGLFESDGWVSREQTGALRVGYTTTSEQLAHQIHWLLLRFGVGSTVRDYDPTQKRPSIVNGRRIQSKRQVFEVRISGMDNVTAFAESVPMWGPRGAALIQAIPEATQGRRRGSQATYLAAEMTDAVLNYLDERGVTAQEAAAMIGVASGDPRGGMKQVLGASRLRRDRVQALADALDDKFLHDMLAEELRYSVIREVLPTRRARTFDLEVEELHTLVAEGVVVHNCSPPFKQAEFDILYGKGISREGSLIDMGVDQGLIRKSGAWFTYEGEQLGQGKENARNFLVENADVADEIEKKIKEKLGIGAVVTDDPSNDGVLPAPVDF

[10] = target: T2, Replicative DNA helicase DnaB (Mycobacterium tuberculosis, UniProt P9WMR3); experiment: DnaB intein splicing inhibitors, dose response, biochemical, cell-free fluorescence (AID 449749); format: functional
T2 sequence (P9WMR3 whole entry): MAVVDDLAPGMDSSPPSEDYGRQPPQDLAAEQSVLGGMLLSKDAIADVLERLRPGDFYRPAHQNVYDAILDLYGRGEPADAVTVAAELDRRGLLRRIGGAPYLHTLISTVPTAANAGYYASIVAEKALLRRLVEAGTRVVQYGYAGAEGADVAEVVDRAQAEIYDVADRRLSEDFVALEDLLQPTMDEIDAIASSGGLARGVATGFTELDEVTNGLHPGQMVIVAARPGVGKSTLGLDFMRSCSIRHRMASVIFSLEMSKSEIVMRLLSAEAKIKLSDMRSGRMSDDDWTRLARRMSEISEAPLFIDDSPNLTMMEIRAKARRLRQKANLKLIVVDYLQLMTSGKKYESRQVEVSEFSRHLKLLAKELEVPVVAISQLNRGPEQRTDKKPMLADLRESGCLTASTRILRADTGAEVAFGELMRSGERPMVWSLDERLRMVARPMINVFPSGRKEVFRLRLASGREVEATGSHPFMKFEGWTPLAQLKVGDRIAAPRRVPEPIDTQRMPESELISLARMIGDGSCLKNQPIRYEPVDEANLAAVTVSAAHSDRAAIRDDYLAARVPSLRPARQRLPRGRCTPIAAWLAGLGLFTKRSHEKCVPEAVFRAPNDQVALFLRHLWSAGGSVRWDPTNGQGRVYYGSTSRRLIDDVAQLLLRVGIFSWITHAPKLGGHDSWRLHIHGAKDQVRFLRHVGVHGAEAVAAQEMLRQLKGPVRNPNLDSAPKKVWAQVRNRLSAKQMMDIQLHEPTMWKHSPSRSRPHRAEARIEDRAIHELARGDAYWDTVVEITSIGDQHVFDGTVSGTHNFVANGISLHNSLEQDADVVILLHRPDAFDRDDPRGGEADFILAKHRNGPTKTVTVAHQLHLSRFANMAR

[11] = A Cell Based Secondary Assay To Explore Cytotoxicity of Compounds that Sensitize Mycobacterium Tuberculosis to Beta-Lactam Antibiotics.; format: functional
[12] = Luminescence Cell-Based Dose Retest to Confirm Inhibitors of Cancer Stem Cells. [Related pubchem assays (depositor defined):AID2717, AID2721]; format: functional; details: Homo sapiens
[13] = target: Mothers against decapentaplegic homolog 3 (Homo sapiens, UniProt P84022); experiment: blockers of Smad3 complex formation in lysate – cell lysate, secondary confirmation, chemiluminescent ELISA, HEK293 lysate, dose response (AID 1058); format: functional
Sequence of Mothers against decapentaplegic homolog 3 (P84022 whole entry, the tested form may be a part): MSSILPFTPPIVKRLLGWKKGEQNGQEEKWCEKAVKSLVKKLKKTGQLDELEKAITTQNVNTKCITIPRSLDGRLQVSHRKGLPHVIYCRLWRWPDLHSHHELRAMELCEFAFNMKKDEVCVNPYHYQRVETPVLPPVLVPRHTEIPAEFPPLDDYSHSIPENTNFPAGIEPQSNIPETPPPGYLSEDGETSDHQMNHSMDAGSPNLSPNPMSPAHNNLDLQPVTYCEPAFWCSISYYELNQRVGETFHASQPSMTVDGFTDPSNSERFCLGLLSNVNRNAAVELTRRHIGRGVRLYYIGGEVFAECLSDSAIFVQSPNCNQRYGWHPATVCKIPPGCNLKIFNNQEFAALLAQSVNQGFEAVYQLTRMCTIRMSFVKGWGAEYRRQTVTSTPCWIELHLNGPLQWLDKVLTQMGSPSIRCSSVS

[14] = target: T3, Sentrin-specific protease 1 (Homo sapiens, UniProt Q9P0U3); experiment: Dose response confirmation of small molecule inhibitors of the catalytic domain of the SUMO protease, SENP1 in a FRET assay.; format: functional; details: read-out: IC50_Mean
T3 sequence (Q9P0U3 whole entry): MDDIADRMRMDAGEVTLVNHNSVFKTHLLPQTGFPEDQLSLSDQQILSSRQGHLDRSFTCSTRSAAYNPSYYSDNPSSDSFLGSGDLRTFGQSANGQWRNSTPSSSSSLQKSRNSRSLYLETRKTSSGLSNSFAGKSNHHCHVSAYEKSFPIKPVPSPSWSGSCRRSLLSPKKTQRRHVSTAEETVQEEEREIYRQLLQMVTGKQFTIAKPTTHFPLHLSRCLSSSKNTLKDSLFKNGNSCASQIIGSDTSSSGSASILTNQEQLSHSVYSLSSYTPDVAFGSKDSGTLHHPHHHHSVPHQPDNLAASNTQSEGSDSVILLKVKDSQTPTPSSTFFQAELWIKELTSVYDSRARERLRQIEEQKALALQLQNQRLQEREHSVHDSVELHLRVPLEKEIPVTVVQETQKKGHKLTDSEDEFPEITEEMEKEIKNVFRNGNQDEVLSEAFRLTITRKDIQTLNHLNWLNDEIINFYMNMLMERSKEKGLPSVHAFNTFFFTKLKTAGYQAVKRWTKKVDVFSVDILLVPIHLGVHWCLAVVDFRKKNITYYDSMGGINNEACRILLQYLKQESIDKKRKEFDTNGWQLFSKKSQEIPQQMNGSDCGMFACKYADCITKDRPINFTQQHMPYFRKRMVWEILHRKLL

[15] = target: T3, Sentrin-specific protease 1; experiment: SENP1 catalytic domain blockers, concentration series – biochemical, kinetic FRET, dose response (AID 651697); format: functional; details: read-out: IC50_Mean
[16] = Counterscreen for IDE inhibitors: Luminescence-based cell-based high throughput dose response assay to identify compounds that are cytotoxic to HEK cells. [Related pubchem assays: 434962 (Primary screen (IDE inhibitors in singlicate)), 449730 (Counterscreen (Cytotoxicity in triplicate)), 435028 (Confirmation (IDE inhibitors in triplicate)) …; format: functional; details: HEK293
[17] = target: T4, Insulin-degrading enzyme (Homo sapiens, UniProt P14735); experiment: Dose Response: Fluorescence polarization-based cell-based high throughput dose response assay for inhibitors of insulin-degrading enzyme (IDE). [Related pubchem assays: 434962 (Primary screen (IDE inhibitors in singlicate)), 449730 (Counterscreen (Cytotoxicity in triplicate)), 435028 (Confirmation (IDE inhibitors in triplicate)), 434984 (Summary …; format: functional
T4 sequence (P14735 whole entry): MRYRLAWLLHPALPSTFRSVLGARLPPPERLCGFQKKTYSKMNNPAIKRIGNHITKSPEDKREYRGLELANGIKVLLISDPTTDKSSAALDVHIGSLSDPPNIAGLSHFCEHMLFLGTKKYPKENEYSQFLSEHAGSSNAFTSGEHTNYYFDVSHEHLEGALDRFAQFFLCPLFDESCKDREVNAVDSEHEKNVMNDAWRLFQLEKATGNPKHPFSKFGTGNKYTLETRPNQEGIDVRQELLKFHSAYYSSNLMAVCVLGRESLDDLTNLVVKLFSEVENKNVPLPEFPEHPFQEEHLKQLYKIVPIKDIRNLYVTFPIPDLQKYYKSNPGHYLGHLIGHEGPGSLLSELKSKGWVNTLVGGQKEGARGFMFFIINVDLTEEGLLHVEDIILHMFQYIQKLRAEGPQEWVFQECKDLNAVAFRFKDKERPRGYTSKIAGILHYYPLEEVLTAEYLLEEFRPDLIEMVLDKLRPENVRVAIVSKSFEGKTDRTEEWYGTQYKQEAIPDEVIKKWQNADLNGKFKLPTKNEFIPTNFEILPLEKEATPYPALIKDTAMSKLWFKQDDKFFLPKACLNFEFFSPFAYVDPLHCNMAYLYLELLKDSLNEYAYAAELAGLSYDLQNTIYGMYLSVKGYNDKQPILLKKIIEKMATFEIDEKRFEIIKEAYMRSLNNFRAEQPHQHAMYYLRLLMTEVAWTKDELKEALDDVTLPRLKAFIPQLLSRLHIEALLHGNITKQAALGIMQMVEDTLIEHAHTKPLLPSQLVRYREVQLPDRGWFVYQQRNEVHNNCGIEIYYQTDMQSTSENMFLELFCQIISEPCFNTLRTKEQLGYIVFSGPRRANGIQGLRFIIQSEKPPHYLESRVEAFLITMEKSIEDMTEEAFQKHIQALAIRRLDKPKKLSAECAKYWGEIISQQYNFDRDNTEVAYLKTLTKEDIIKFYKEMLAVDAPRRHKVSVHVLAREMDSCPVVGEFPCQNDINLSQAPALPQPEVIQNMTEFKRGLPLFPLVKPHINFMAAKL

[18] = target: T5, Carboxy-terminal domain RNA polymerase II polypeptide A small phosphatase 1 (Homo sapiens, UniProt Q9GZU7); experiment: CTDSP1 inhibitors, concentration-response, biochemical, absorbance readout, ultra-high-throughput screen actives (AID 540297); format: functional
T5 sequence (Q9GZU7 whole entry): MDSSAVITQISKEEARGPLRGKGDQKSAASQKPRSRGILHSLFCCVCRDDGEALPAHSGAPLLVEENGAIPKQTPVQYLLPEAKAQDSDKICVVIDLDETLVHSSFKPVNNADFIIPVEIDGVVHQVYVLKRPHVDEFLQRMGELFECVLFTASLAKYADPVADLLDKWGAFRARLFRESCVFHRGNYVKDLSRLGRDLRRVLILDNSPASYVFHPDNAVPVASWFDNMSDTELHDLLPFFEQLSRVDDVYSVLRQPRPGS

[19] = target: NS3 (Hepatitis C virus, UniProt A3EZJ3); experiment: PubChem AID 2173; parameters: species or system Hepacivirus hominis
Sequence of NS3 (A3EZJ3 whole entry): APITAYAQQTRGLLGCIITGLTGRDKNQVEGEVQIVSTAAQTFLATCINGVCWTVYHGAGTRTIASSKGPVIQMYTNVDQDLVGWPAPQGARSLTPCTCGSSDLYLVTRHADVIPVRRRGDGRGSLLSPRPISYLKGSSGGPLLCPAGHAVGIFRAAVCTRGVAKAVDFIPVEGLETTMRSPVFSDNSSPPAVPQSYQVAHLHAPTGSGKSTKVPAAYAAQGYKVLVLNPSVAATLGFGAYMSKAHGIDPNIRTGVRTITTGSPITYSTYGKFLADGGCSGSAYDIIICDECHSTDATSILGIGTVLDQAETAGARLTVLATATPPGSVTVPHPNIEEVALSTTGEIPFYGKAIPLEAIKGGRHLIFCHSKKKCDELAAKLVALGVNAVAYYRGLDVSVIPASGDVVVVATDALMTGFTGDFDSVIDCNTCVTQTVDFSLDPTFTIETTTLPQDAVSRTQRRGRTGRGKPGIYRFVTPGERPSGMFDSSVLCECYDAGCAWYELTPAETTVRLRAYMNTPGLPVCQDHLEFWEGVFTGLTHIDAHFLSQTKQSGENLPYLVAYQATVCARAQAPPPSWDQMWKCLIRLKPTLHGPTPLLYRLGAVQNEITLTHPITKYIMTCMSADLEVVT

[20] = target: T6, Heat shock 70 kDa protein 1A (Homo sapiens, UniProt P0DMV8); experiment: small-molecule inhibition of Hsp70 – biochemical, TR-FRET (AID 786)
T6 sequence (P0DMV8 whole entry): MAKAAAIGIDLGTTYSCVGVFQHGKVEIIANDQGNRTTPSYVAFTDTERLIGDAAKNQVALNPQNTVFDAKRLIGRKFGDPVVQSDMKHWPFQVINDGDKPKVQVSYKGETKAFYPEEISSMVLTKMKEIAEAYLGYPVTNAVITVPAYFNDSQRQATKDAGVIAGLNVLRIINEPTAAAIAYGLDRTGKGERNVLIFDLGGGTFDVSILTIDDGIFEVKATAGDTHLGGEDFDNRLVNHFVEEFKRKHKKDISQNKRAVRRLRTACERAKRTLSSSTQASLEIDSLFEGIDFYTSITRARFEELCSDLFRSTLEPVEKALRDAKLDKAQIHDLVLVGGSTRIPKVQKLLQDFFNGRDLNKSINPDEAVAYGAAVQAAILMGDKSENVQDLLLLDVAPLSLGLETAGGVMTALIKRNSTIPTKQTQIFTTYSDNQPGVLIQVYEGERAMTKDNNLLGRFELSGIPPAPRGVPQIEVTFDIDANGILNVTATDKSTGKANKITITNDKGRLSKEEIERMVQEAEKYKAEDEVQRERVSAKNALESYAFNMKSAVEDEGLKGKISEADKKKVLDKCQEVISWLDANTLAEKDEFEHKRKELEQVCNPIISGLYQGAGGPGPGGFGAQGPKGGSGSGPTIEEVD

[21] = target: Induced myeloid leukemia cell differentiation protein Mcl-1 (Homo sapiens, UniProt Q07820); experiment: blockers of MCL1 binding to BIM peptide – biochemical, fluorescence polarization, BIM-BH3 peptide, 1536-well, dose response (AID 2217)
Sequence of Induced myeloid leukemia cell differentiation protein Mcl-1 (Q07820 whole entry): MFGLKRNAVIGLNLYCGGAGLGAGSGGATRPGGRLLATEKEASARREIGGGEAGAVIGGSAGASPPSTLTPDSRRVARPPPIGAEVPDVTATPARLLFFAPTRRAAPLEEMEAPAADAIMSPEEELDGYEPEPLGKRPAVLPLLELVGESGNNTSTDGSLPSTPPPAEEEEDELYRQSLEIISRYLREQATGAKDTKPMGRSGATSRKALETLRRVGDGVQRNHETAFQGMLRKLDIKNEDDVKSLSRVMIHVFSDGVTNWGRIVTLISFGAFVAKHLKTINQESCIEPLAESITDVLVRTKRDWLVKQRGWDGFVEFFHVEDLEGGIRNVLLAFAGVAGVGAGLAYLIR

[22] = target: T6, Heat shock 70 kDa protein 1A; experiment: small molecules displacing fluorescent ligand from Hsp70 – biochemical, fluorescence polarization, primary screen (AID 583)
[23] = target: Bcl-2-like protein 1 (Homo sapiens, UniProt Q07817); experiment: blockers of BCLXL peptide binding – biochemical, fluorescence polarization, 1536-well, selectivity assay for MCL1 inhibitor project, dose response (AID 2218)
Sequence of Bcl-2-like protein 1 (Q07817 whole entry): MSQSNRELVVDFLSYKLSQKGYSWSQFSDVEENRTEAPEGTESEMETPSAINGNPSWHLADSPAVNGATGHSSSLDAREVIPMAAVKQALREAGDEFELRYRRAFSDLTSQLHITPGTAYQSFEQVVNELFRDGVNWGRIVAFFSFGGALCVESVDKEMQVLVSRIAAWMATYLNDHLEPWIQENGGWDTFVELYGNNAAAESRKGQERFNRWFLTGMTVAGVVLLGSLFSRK

[24] = target: Genome polyprotein (Hepatitis C virus, UniProt Q2Q167); experiment: disruption of hepatitis C core self-association – biochemical, TR-FRET, dose response (AID 2159); parameters: species or system Hepacivirus hominis;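 also: blocks dimerization of HCV core protein measured by TR-FRET between tagged core106 pairs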
Sequence of Genome polyprotein (Q2Q167 whole entry): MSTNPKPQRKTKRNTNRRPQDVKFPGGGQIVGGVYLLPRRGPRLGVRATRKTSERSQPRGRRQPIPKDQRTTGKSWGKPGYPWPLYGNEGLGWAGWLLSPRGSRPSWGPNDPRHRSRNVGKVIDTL

[25] = Luminescence-based counterscreen assay for KLF5 inhibitors: dose response cell-based high throughput screening assay to identify cytotoxic compounds using the IEC-6 intestinal epithelial cell line. [Related pubchem assays: 1700 (Primary screen.), 1834 (Confirmation screen.), 1858 (Summary AID.), 1905 (Counterscreen.)]; format: functional

O=C(CCCn1c(=O)c2sccc2n(Cc2cc(=O)n3ccccc3n2)c1=O)NCc1ccco1
IC50 [1]: 36.6 µM (active)

Cc1ccc(N=C(S)NC(NC(=O)c2ccccc2)C(Cl)(Cl)Cl)c(C)c1 (stereo not given)
CC50 [2]: 47 µM (not active)

Cc1ccc2cc(C3C(C#N)=C(N)Oc4c3ccc3cccnc43)c(O)nc2c1 (stereo not given)
EC50 [3]: > 38 µM (not active)
AC50 [4]: 1.02 µM (active)
EC50 [5]: > 150 µM (inactive)
IC50 [6]: 14.3 µM (active)
EC50 [7]: > 100 µM (active)

Cc1nn(CCc2nn[nH]n2)c2nc(-c3ccc(C4CCCCC4)cc3)cc(C(F)(F)F)c12
IC50 [8]: 21.7 µM (active)
EC50 [9]: 38.1 µM (active)
AC50 [10]: 3.83 µM (active)
CC50 [11]: 34.4 µM (active)
AC50 [12]: 2.14 µM (active)

COc1ccc(C(c2cc3c(cc2O)OCO3)N2CCOCC2)cc1OC (stereo not given)
IC50 [13]: 12.2 µM (not active)

Cc1c(-n2cc(C(=O)c3cc(Cl)ccc3O)cc(C#N)c2=O)c(=O)n(-c2ccccc2)n1C
IC50 [14]: 7.48 µM (active)
IC50 [15]: 13 µM (active)
IC50 [16]: > 55.7 µM (not active)
IC50 [17]: > 55.9 µM (not active)

Cc1ccc(C(=O)O)cc1-c1ccc(/C=C2\SC(=O)N(CC(=O)Nc3ccccc3)C2=O)o1
IC50 [18]: 2.75 µM (active)
IC50 [19]: 5.39 µM (active)

COc1ccc(Br)cc1/C=c1\sc2nc(-c3ccco3)nn2c1=O
IC50 [20]: > 100 µM (not active)
IC50 [21]: 10.8 µM (not active)
IC50 [22]: > 100 µM (not active)
IC50 [23]: > 109 µM (not active)
IC50 [24]: > 49.8 µM (not active)

COc1ccc(/C=N/NC(=O)CCn2c3ccccc3c3ccccc32)cc1O
IC50 [25]: 2.02 µM (active)
